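In this assay, cells in 96-well plates receive the compound at five concentrations for 48 hours. Endpoints are linearly interpolated between the surrounding concentrations. GI50 = concentration required for 50% inhibition of growth.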 Activity calls are given as the source filed them. Rule as the data show it: active = GI50 up to about 1.1 µM and inactive = higher.
What was measured:
Test in all cases: DTP human tumour cell line panel, 48 h
NCI-H23 = test system: NCI-H23
M14 = test system: M14
UACC-62 = test system: UACC-62
ACHN = test system: ACHN
HOP-92 = test system: HOP-92
786-0 = test system: 786-0
EKVX = test system: EKVX
OVCAR-4 = test system: OVCAR-4
K562 = test system: K562
MDA-MB-435 = test system: MDA-MB-435
SK-MEL-2 = test system: SK-MEL-2
MDA-N = test system: MDA-N
KM12 = test system: KM12
HOP-62 = test system: HOP-62
MDA-MB-231 = test system: MDA-MB-231
UACC-257 = test system: UACC-257
A498 = test system: A498
Malme-3M = test system: Malme-3M
COLO 205 = test system: COLO 205
RXF 393 = test system: RXF 393

Measured: GI50

C(=N\Cc1ccccc1)/c1ccccc1-c1ccccc1/C=N/Cc1ccccc1
inactive: NCI-H23 > 8.67 µM | M14 9.86 µM | UACC-62 > 7.23 µM | ACHN > 8.53 µM | HOP-92 > 10 µM | 786-0 > 10 µM | EKVX > 10 µM | OVCAR-4 > 7.96 µM | K562 3.13 µM | MDA-MB-435 > 10 µM | SK-MEL-2 > 10 µM | MDA-N 5.33 µM | KM12 > 10 µM | HOP-62 > 10 µM | MDA-MB-231 > 10 µM | UACC-257 2.7 µM | A498 > 10 µM | Malme-3M > 9.62 µM | COLO 205 > 10 µM | RXF 393 > 10 µM
